# From patent US20180153830A1, “SELECTIVE INHIBITORS OF UNDIFFERENTIATED CELLS” (Yissum Research Development Company of the Hebrew …, priority 2012, published 2018)
# Where “and” joins values, the source holds several entries; their conditions need not be identical. Equal values may be shown once.
# Columns and labels:
# [1] = test system: phosphorylated eIF2α in differentiated cells; test: Phospho-eIF2α immunoblot, differentiated cells; type: cell-based, human; conditions: 20 μM PluriSIn #1 or 100 nm A939572
# Method: For immunoblotting, 10% polyacrylamide gel was used for protein separation and detection. The gel was transferred to a nitrocellulose membrane and antibody hybridization and chemiluminescence were performed according to standard procedures. The primary antibodies in this analysis were rabbit anti-phosphorylated-eIF2a (1:250, Cell Signaling Technology), rabbit anti caspase-3 (1:1,000, Cell Signaling Technology), mouse anti β-catenin (1:10,000, BD Biosciences) and mouse anti-α-tubulin (1:50,000, Sigma-Aldrich). Horseradish peroxidase-conjugated anti-rabbit and anti-mouse secondary antibodies were obtained from Jackson Immunoresearch Laboratories.
# To further study the significance of UPR, XBP1 mRNA splicing and eIF2α phosphorylation, hallmarks of UPR, were further examined. Human ES cells and ES-derived differentiated cells were treated with PluriSIn #1 for 12 hours, and expression of the spliced isoform sXBP1 was determined by quantitative PCR and by immunoblotting, as described in the Materials and Methods section. Gene expression change conferred by dithiothreitol ([…]) was used as a positive control.
# [2] = test system: mouse embryos (inner cell mass); test: In-vitro embryonic development experiments; type: cell-based; conditions: for proportion of high quality blastocysts: compound alone; for embryos developing into good quality (category A/B) blastocysts: compound alone (20 μM PluriSIn #1 or 100 nm A939572); for embryos developing into good quality blastocysts with oleic acid / proportion of high quality blastocysts with oleic acid: compound with 100 μM oleic acid
# Method: Superovulation was induced in female mice (CB6F1/OLAHSD and ICR:HSD(CD-1)), by injection of gonadotropins: intraperitoneal injection of 5 IU PMSG (pregnant mare's serum gonadotropin) at 1:00 P.M. was followed by an intraperitoneal injection of 5 IU hCG (human chorionic gonadotropin) 47 hours later, in accordance with the procedures described by Najy et al. [Manipulating the mouse embryo: a laboratory manual, 3rd Edn., Cold Spring Harbor Laboratory Press (2003)].
# Females were mated with stud males immediately after the second injection, and plugging was evident the next morning. Pregnant female mice were sacrificed at approximately 36 hours p.c. (post coitum), and two-cell embryos were collected in accordance with the procedures described by Najy et al. [Manipulating the mouse embryo: a laboratory manual, 3rd Edn., Cold Spring Harbor Laboratory Press (2003)]. The abdominal cavity was opened, and the oviduct was cut and transferred to a Petri dish containing M2 medium at room temperature. The oviduct was flushed with M2 medium, and embryos were picked up using a pipette and washed in M2 medium to rinse off debris. Embryos were then transferred to microdrops of M16 medium. A 35 mm culture dish (Falcon BD) containing drops of 40 μl M16 medium, covered with mineral oil, was prepared the day before, and incubated overnight at a temperature of 37° C. under 5% CO2. Embryos were then transferred to these microdrops following their collection, and incubated at a temperature of 37° C. under 5% CO2. The development of the embryos was examined twice a day using light microscopy imaging. At the morula stage (approximately 3.5 days p.c.), embryos were transferred either to microdrops of 40 μl M16 medium with 20 μM PluriSIn #1 (isonicotinic acid N′-phenylhydrazide) in 0.2% DMSO, or to control microdrops with 0.2% DMSO. Other control embryos were left at the original microdrops to control for possible effects of the transfer itself. At approximately 4 days p.c. and 4.5 days p.c., the embryos were examined using light microscopy imaging, and blastocysts were graded as described by Cortes et al. [Stem Cells and Development 17:255-267 (2008)].
# As described in the Materials and Methods section, a series of independent experiments were performed with two strains of mice, in which two-cell embryos were collected from the oviducts of pregnant mice at approximately 1.5 days post coitum, and these embryos were then let to develop in vitro. The embryos reached the morula stage at approximately 3.5 days post coitum, and were then transferred either to drops with 20 μM PluriSIn #1 (17 embryos in total), drops with 20 μM PluriSIn #1 and 100 μM oleic acid (7 embryos in total), or to control drops with 0.2% DMSO (8 embryos in total), while other control embryos were left to develop without transfer at all (10 embryos in total). Using light microscopy imaging, the development of the embryos was followed until they became mature blastocysts (at approximately 4.5 days post coitum, after which all embryos disintegrated in culture). The blastocysts were then classified into three distinct categories: (A) good quality mouse blastocysts with large and distinct ICM; (B) mouse blastocysts with distinct, but smaller, ICM; and (C) bad quality mouse blastocysts with indistinguishable ICM, as described by Cortes et al. [Stem Cells and Development 17:255-267 (2008)].
# The above experiments with mouse embryos were then repeated using the SCD1 inhibitor A939572 instead of PluriSIn #1, and compared with the results obtained with PluriSIn #1, in order to confirm that the effects of PluriSIn #1 are associated with inhibition of SCD1 activity.
# SCD1 = target: T1, SCD1 (Homo sapiens, UniProt O00767); test: In vitro biochemical screen for SCD1 inhibitors; conditions: previous studies
# T1 sequence (O00767 1-359): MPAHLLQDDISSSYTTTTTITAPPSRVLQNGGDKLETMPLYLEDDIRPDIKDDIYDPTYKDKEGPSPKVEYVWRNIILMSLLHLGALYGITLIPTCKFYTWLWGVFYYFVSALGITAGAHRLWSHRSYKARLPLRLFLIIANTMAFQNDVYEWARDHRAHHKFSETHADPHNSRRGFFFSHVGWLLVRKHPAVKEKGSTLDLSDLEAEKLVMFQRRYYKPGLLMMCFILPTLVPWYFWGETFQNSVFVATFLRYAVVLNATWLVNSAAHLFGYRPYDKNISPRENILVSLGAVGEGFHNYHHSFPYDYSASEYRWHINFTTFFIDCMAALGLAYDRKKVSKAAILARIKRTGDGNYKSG
# Source text: Inhibition of SCD1 has been reported to induce ER stress and UPR in some human cancer cell lines, leading to apoptosis of these cells [Roongta et al., Molecular Cancer Research 9:1551-1561 (2011); Minville-Walz et al., PloS One 5:e14363 (2010); Scaglia et al., PloS One 4:e6812 (2009); Hess et al., PloS One 5:e1394 (2010); Morgan-Lappe et al., Cancer Research 67:4390-4398 (2007); Mason et al., PLoS One 7:e33823 (2012)].
smiles,measurement,setting,value
"CNC(=O)c1cccc(NC(=O)N2CCC(Oc3ccccc3Cl)CC2)c1 [A939572, 4-(2-chlorophenoxy)-N-(3-(methylcarbamoyl)-phenyl)piperidine-1-carboxamide, reference compound]","levels of phosphorylated eIF2α, differentiated cells",[1],did not increase levels
same,proportion of high quality blastocysts,[2],56%
same,embryos developing into good quality (category A/B) blastocysts,[2],5 of 9
same,embryos developing into good quality blastocysts with oleic acid,[2],5 of 7
same,proportion of high quality blastocysts with oleic acid,[2],71%
"O=C(NNc1ccccc1)c1ccncc1 [PluriSIn #1, isonicotinic acid N′-phenylhydrazide]","levels of phosphorylated eIF2α, differentiated cells",[1],did not increase levels
same,embryos developing into blastocysts with no distinguished ICM (category C),[2]; 20 μM,6 of 17 and 6/17
same,embryos stuck at the morula stage,[2]; 20 μM,4 of 17 and 4/17
same,proportion of high quality blastocysts,[2],41%
same,embryos developing into good quality (category A/B) blastocysts,[2],7 of 17 and 7/17
same,embryos developing into good quality blastocysts with oleic acid,[2],5 of 7
same,proportion of high quality blastocysts with oleic acid,[2],71%
same,SCD1 inhibition in an in vitro biochemical screen,SCD1,possible direct inhibitors of SCD1
"Cc1ccc(NNC(=O)C(O)(c2ccccc2)c2cccs2)cc1 (centres unmarked) [PluriSIn #6, 2-hydroxy-2-(thiophen-2-yl)-2-phenylacetic acid 4-methyl-N′-phenylhydrazide]",SCD1 inhibition in an in vitro biochemical screen,SCD1,possible direct inhibitors of SCD1
